Reference: US8193179B2, “3-amino-6-(1-amino-ethyl)-tetrahydropyran derivatives” (Actelion Pharmaceuticals, Ltd, priority 2007, dated 2012)
Values after ≈ are worked out from the molar mass of the structure shown. Like-named read-outs stand apart in the source and are kept apart here.

Columns and labels:
Format in all cases: cell-based
P. aeruginosa A1124 = assay: MIC by microdilution in cation-adjusted Mueller-Hinton Broth, P. aeruginosa A1124; conditions: strain A1124, test medium pH 7.2-7.3; for MIC: Pseudomonas aeruginosa
Method: (§1) These assays have been performed following the description given in “Methods for dilution Antimicrobial Susceptibility Tests for Bacteria that Grow Aerobically, 4th ed.; Approved standard: NCCLS Document M7-A4; National Committee for Clinical Laboratory Standards: Villanova, Pa., USA, 1997”. Minimal inhibitory concentrations (MICs; mg/l) were determined in cation-adjusted Mueller-Hinton Broth (BBL) by a microdilution method following NCCLS guidelines (National Committee for Clinical Laboratory Standards. Methods for Dilution Antimicrobial Susceptibility). The pH of the test medium was 7.2-7.3.

S. aureus A798 = assay: MIC by microdilution in cation-adjusted Mueller-Hinton Broth, S. aureus A798; conditions: strain A798, test medium pH 7.2-7.3; for MIC: Staphylococcus aureus
Method: as §1

A. baumanii T6474 = assay: MIC by microdilution in cation-adjusted Mueller-Hinton Broth, A. baumanii T6474; conditions: strain T6474, test medium pH 7.2-7.3; for MIC: Acinetobacter baumannii
Method: as §1

[1] = read-out: MIC P. aeruginosa A1124 (further typical results, comparison with WO 2006/032466)
[2] = read-out: MIC P. aeruginosa A1124

SMILES | MIC (P. aeruginosa A1124; [1]) [µg/mL] | MIC (S. aureus A798) [µg/mL] | MIC (P. aeruginosa A1124; [2]) [µg/mL] | MIC (A. baumanii T6474) [µg/mL] | also measured
COc1ccc2nccc(CC(N)[C@@H]3CC[C@@H](NCc4ccc5c(n4)NC(=O)CS5)CO3)c2c1 (mixture of isomers) [Example 4, 6-({(3R,6S)-6-[(1RS)-1-amino-2-(6-methoxy-quinolin-4-yl)-ethyl]-tetrahydro-pyran-3-ylamino}-methyl)-4H-pyrido[3,2-b][1,4]thiazin-3-one] | 8 |  |  |  | 
COc1ccc2ncc(F)c(CC(N)[C@@H]3CC[C@@H](NCc4ccc5c(n4)NC(=O)CO5)CO3)c2n1 (mixture of isomers) [Example 15, 6-({(3R,6S)-6-[(1RS)-1-amino-2-(3-fluoro-6-methoxy-[1,5]naphthyridin-4-yl)-ethyl]tetrahydro-pyran-3-ylamino}-methyl)-4H-pyrido[3,2-b][1,4]oxazin-3-one] |  | ≤ 0.031 | 0.125 | ≤ 0.031 | 
COc1ccc2nccc(C[C@H](N)[C@@H]3CC[C@@H](NCc4ccc(C)c(F)c4)CO3)c2n1 [Example 19] |  |  |  |  | MIC S. aureus A798 (S. aureus A798): ≦0.031 mg/l; MIC P. aeruginosa A1124 (P. aeruginosa A1124): 2 µg/mL (≈ 4.71 µM); MIC A. baumanii T6474 (A. baumanii T6474): 0.5 µg/mL (≈ 1.18 µM)
NC(Cc1ccnc2ccc(F)cc12)[C@@H]1CC[C@@H](NC/C=C/c2cc(F)ccc2F)CO1 (mixture of isomers) [Example 3, {(3R,6S)-6-[(1RS)-1-amino-2-(6-fluoro-quinolin-4-yl)-ethyl]-tetrahydro-pyran-3-yl}-[(E)-3-(2,5-difluoro-phenyl)-allyl]-amine] |  | 0.25 | 0.5 | 0.5 | 
COc1ccc2nccc(C[C@H](N)[C@@H]3CC[C@@H](NCc4ccc5c(n4)NC(=O)CS5)CO3)c2n1 [Example 8, 6-({(3R,6S)-6-[(1S)-1-amino-2-(6-methoxy-[1,5]naphthyridin-4-yl)-ethyl]-tetrahydro-pyran-3-ylamino}-methyl)-4H-pyrido[3,2-b][1,4]thiazin-3-one] | 2 (≈ 4.16 µM) |  |  |  | 
